What was measured:
[1] = test system: S. pneumoniae A66.1 Xen 10; set-up: species or system Streptococcus pneumoniae; conditions: in vivo
Protocol: Thus, the strains HUSTMBIG, A66.1, EF3030 and 140301 were made bioluminescent and tested in both mouse lung and nasopharyngeal models. Briefly, exponential cultures of S. pneumoniae grown at 37° C. in BHI were pelleted and then resuspended in fresh BHI broth. Bacterial concentrations were estimated spectrophotometrically by absorbance at 600 nm and adjusted to approximately […] by dilution BHI. Cell numbers were verified by plating dilutions of inoculum onto BHI agar.
Pneumococci were introduced into the lungs of the mice by either direct intratracheal inoculation, or by intranasal administration. The animals were anesthetized with ketamine (100 mg/ml) and xylazine (20 mg/ml), mixed at a 4:1 ratio v/v just before use. The anesthesia mixture was injected intramuscularly into the right hamstring muscle at a dose of 100 mg ketamine/kg of body weight. After anesthesia was established, the mice were inoculated with approximately 10^6 CFU in a total volume of 20 μl, using a 25 ga. Ball-tipped gavage needle. Mice were held in vertical suspension for 10 minutes after inoculation to facilitate deep penetration of the inoculum. Alternatively, mice were infected intranasally with approximately 10^6 CFU by placing 20 μl of bacterial suspension on the nares and allowing the mice to inhale the inoculum. In the antibiotic studies, mice were treated with amoxicillin at 1 mg/kg or 5 mg/kg, given subcutaneously at t=0, 18, 24, and 42 hours post-infection.
Mice were imaged for a maximum of 5 min at a number of time points post-infection using an IVIS™ CCD camera (Xenogen Corporation, Alameda, Calif.). Total photon emission from selected and defined areas within the images of each mouse was quantified using the LivingImage™ software package (Xenogen Corporation, Alameda, Calif.). The photon signal from the thorax was quantified from the ventral image of each mouse.
Twelve mice were inoculated with approximately 10^6 CFU of S. pneumoniae A66.1 Xen 10. The mice were divided into three groups of four animals and two of these groups were treated with an amoxicillin regime at 1 or 5 mg/kg, the third group of animals remaining untreated as controls.
After the final imaging time point, mice were sacrificed and the infected lung tissue was surgically removed and weighed. Both lungs were homogenized together in 500 μl BHI in a loose Dounce homogenizer. The suspension was serially diluted in BHI and plated in duplicate onto BHI agar. Bacterial burden was estimated from the number of CFU/g of lung tissue. The bacterial load present in the nasal passage of the mice was obtained by washing approximately 0.25 ml of saline through the trachea and collecting the first 0.1 ml of nasal wash as it exited the nares, as described (Lipsitch et al. (2000) Vaccine 18:2895–2901; Wu et al. (1997) Microb. Pathog. 23:127–137).

[2] = test system: MRSA strain I6; assay: antibiotic resistance of MRSA strain; assay type: cell-based, S. aureus
[3] = test system: S. pneumoniae pAUL-A Tn4001 luxABCDE km^R; assay: growth and colony formation of S. pneumoniae transformants in the presence of kanamycin; assay type: cell-based, Streptococcus pneumoniae; conditions: 10^3 CFUs plated on chocolate agar, increasing kanamycin 400 to 1000 μg/ml; approximately 1000 CFUs without kanamycin

CC1(C)S[C@@H]2[C@H](NC(=O)[C@H](N)c3ccc(O)cc3)C(=O)N2[C@H]1C(=O)O [amoxicillin]
appearance of treated mice [1]: appeared relatively healthy | highest number of pneumococci isolated from a treated animal (lung tissue) [1]: 300 CFU/g tissue | treated animals showing no bacteria present in lung tissue [1]: four of the eight | animals with a bioluminescent signal ([1]; sc, 1 mg/kg): Three of the four | animals with a significant bioluminescent signal ([1]; sc, 5 mg/kg): None of the four

O=C(N[C@H](CO)[C@H](O)c1ccc([N+](=O)[O-])cc1)C(Cl)Cl [chloremphenicol]
resistance of strain to antibiotics tested [2]: resistant to all the antibiotics tested except for chloremphenicol

NC[C@H]1O[C@H](O[C@H]2[C@H](O)[C@@H](O[C@H]3O[C@H](CO)[C@@H](O)[C@H](N)[C@H]3O)[C@H](N)C[C@@H]2N)[C@H](O)[C@@H](O)[C@@H]1O [kanamycin]
number of colonies (average) [3]: 56 to 35

From patent US7056728B2, “Compositions and methods for use thereof in modifying the genomes of microorganisms” (priority 2000, dated 2006)
